Here are results for one compound from article PMC6934184, “Selective DNA-PKcs inhibition extends the therapeutic index of localized radiotherapy and chemotherapy” (The Journal of Clinical Investigation, 2019).

This assay has as its target T1, JAK1 (Homo sapiens, UniProt P23458).
T1 construct: purchased Thermo Fisher Scientific (Life Technologies) SelectScreen
The assay is described as follows: SelectScreen Z'LYTE. The class given is biochemical. In a few lines:
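NU5455 was profiled across the SelectScreen Broad panel of kinase activity and binding assays. Z'LYTE reactions such as CSF1R ran at apparent Km ATP, while the Adapta CAMK1 assay used ATP listed as 10. Values are given as percent.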

T1 sequence (P23458 whole entry): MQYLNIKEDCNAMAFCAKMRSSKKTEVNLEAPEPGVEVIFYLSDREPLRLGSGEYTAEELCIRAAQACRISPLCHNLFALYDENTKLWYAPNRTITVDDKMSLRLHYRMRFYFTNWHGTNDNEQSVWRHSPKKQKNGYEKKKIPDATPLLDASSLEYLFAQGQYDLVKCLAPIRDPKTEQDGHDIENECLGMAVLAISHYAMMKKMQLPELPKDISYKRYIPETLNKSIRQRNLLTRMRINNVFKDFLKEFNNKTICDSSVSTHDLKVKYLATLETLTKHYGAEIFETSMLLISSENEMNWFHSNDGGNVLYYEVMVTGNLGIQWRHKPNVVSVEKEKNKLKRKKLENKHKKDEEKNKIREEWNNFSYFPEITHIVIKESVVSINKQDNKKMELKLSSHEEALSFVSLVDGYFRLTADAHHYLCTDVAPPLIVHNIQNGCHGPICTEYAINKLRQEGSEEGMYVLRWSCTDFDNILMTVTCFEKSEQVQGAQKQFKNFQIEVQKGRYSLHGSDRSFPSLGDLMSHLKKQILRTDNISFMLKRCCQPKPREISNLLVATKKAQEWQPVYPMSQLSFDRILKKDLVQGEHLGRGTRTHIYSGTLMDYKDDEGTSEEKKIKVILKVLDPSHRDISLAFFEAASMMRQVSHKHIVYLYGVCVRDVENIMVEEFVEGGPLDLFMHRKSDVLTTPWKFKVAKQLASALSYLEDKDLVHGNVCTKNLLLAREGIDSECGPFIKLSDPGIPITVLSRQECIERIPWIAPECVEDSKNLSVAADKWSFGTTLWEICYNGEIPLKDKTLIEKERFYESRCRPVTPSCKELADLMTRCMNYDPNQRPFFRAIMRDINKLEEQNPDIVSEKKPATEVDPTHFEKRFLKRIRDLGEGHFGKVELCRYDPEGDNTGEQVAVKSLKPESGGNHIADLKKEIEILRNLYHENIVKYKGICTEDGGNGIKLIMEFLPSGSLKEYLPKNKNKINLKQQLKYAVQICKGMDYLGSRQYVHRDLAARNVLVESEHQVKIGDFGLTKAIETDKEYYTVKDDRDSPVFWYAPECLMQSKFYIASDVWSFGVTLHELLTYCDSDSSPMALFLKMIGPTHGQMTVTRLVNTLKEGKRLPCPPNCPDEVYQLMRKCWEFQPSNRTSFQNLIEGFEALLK

For the compound `CN(C(=O)CN1CCOCC1)c1ccc2sc3c(-c4cccc5c(=O)cc(N6CC7CCC(C6)O7)oc45)cccc3c2c1` [NU5455], the inhibition (commonly the change of the read-out against control, counted positive when it falls) at 1 µM was -5.7%.
